IC50 data for 23 compounds are collected here from US8598217B2, “Imidazole derivatives and their use as modulators of cyclin dependent kinases” (Astex Therapeutics Ltd., priority 2009, dated 2013).

As a reminder, the IC50 is the concentration that gives 50% inhibition.

Sequence of CDK4/cyclin D1 (P11802 whole entry): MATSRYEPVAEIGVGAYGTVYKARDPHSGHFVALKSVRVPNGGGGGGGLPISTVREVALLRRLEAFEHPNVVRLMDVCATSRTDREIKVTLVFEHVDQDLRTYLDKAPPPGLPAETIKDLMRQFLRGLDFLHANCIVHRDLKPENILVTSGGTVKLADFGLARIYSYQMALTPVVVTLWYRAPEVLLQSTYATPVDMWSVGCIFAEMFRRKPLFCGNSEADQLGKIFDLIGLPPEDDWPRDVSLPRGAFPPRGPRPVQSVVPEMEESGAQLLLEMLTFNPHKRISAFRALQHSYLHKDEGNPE
Sequence of CDK4/cyclin D1 (P24385 whole entry partner): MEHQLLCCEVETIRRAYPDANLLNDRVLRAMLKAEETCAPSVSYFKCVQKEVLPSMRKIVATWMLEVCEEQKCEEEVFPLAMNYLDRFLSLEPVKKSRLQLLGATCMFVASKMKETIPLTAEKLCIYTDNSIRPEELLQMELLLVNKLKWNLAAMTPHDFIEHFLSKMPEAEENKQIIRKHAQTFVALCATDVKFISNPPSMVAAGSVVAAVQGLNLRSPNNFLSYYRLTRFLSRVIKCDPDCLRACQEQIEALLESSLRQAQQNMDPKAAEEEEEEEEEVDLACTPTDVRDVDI

One experiment addresses CDK4/cyclin D1 (Homo sapiens (Human), UniProt P11802). Kind of experiment: CDK4/cyclin D1 enzymatic activity assay (Protocol A, Lance TR-FRET). As to conditions: CDK4/cyclin D1, 175 nM pRb152, 3 μM ATP, 60 min, room temperature; read-out: IC50 against CDK4 kinase. In kind it is biochemical. As to the method:
A 384-well microtiter Lance TR-FRET (time-resolved-fluorescence energy transfer) endpoint assay was used for CDK4/cyclin D1 kinase activity measurements. The same assay was used for IC50 determination of small molecule inhibitors. In general, the kinase reactions were carried out in 30 μL volumes in the reaction solution containing the following: 2 μL compound (in 20% DMSO), 18 uL CDK4/cyclin D1 in Assay Buffer (50 mM HEPES, pH 7.5, 5 mM MgCl2, 2 mM MnCl2, 1 mM DTT, 0.05% BSA, 0.02% Tween-20), 10 μL of the mixture of pRb152 and ATP. The final reaction mixture contains compound (inhibitor) with the concentration varying from […], 2% DMSO, 0.3 nM CDK4/cyclin D1, 175 nM pRb152, and 3 μM ATP (Amersham Pharmacia, Cat. No. 27-2056-01). All reactions were run at room temperature in 384-well white flat-bottom OptiPlates (Perkin Elmer, Cat. No. 6007290) for 60 min then were quenched by the addition of 10 μL of 120 mM EDTA. The signals were captured by the addition of 40 μL of the Detection Solution containing the following: Detection Buffer (50 mM HEPES, pH 7.5, 30 mM EDTA, 0.1% Triton x-100, 0.05% BSA), 70 ng/mL anti-phospho-pRb(S780) (Cell Signaling Technology, Cat. No. 9307S), 1 nM Lance Eu-W1024-Rabbit anti-IgG (Perkin Elmer, Cat. No. AD0082), and 20 nM SureLight™ Allophycocyanin-Streptavidin (Perkin Elmer, Cat. No. CR130-100). The resulted solutions were incubated at room temperature for 2 hours before read on the Evision Multilabel Reader (Perkin Elmer, Envision 2102-0010). Note: IC50<0.005 nM or IC50>10 μM indicates the true IC50 is out of detection range.
CDK4/cyclin D1 recombinant protein used in the enzymatic activity assay was prepared by coexpressing pDEST10-CDK4 (N-terminal His6) and pFastBacDual-GST-hCyclinD1 viruses in Sf21 cells. The overexpressed protein was purified by Ni-NTA affinity pull down to >80% pure by Sizing HPLC.
On to `N#Cc1ccc(C(=O)c2nc3ccc(N4CCNCC4)nc3[nH]2)cc1-c1cncc2ccccc12` [Example 166, 2-Isoquinolin-4-yl-4-(5-piperazin-1-yl-3H-imidazo[4,5-b]pyridine-2-carbonyl)-benzonitrile], for which the IC50 came to 8 nM. Regarding `Cc1n[nH]c(C)c1-c1cc(C(=O)c2nc3ccc(N4CCNCC4)nc3[nH]2)ccn1` [Example 169, [2-(3,5-Dimethyl-1H-pyrazol-4-yl)-pyridin-4-yl]-(5-piperazin-1-yl-3H-imidazo[4,5-b]pyridine-2-yl)-methanone], the half-maximal inhibitory concentration (IC50) is 260 nM.

On to `CN(C)C1CCN(c2ccc3[nH]c(C(=O)c4ccnc(-c5cncc6ccccc56)c4)nc3c2)CC1` [Example 89, [5-(4-Dimethylamino-piperidin-1-yl)-1H-benzoimidazol-2-yl]-(2-isoquinolin-4-yl-pyridin-4-yl)-methanone], for which the concentration for half-maximal inhibition (IC50) amounted to 4 nM. For the compound `CN(C)C1CCN(c2ccc3nc(C(=O)c4ccnc(-c5cncc6ccccc56)c4)[nH]c3n2)CC1` [Example 135, [5-(4-Dimethylamino-piperidin-1-yl)-3H-imidazo[4,5-b]pyridin-2-yl]-(2-isoquinolin-4-yl-pyridin-4-yl)-methanone], the half-maximal inhibitory concentration (IC50) was found to be 12 nM. Same read-out and setting: next, `O=C(c1ccnc(-c2cncc3ccccc23)c1)c1nc2cc(OCC(O)CO)ccc2[nH]1` (centres unmarked) [Example 98, [5-(2,3-Dihydroxy-propoxy)-1H-benzoimidazol-2-yl]-(2-isoquinolin-4-yl-pyridin-4-yl)-methanone]: 33 nM; `CN1CCN(Cc2ccc3[nH]c(C(=O)c4ccnc(-c5cncc6ccccc56)c4)nc3c2)CC1` [Example 86, (2-Isoquinolin-4-yl-pyridin-4-yl)-[5-(4-methyl-piperazin-1-ylmethyl)-1H-benzoimidazol-2-yl]-methanone]: 27 nM; `Cc1nn(C)c(C)c1-c1cc(C(=O)c2nc3ccc(N4CCC(N(C)C)CC4)nc3[nH]2)ccc1C#N` [Example 173, 4-[5-(4-Dimethylamino-piperidin-1-yl)-3H-imidazo[4,5-b]pyridine-2-carbonyl]-2-(1,3,5-trimethyl-1H-pyrazol-4-yl)-benzonitrile]: 12 nM. Same read-out and setting: next, `CN(C)C1CCN(c2ccc3nc(C(=O)c4ccc(C#N)c(-c5cncc6[nH]ccc56)c4)[nH]c3n2)CC1` [Example 140, 4-[5-(4-Dimethylamino-piperidin-1-yl)-3H-imidazo[4,5-b]pyridine-2-carbonyl]-2-(1H-pyrrolo[2,3-c]pyridin-4-yl)-benzonitrile]: 4 nM; `O=C(c1ccnc(-c2cncc3ccccc23)c1)c1nc2ccc(N3CCNCC3)nc2[nH]1` [Example 164]: 24 nM.

For the compound `Cc1nn(C)c(C)c1-c1cc(C(=O)c2nc3ccc(N4CCNCC4)nc3[nH]2)ccc1C#N` [Example 189, 4-(5-piperazin-1-yl-3H-imidazo[4,5-b]pyridine-2-carbonyl)-2-(1,3,5-trimethyl-1H-pyrazol-4-yl)-benzonitrile], the half-inhibitory concentration (IC50) stood at 95 nM.

On to `CN1CCC(NC(=O)c2ccc3nc(C(=O)c4ccnc(-c5cncc6ccccc56)c4)[nH]c3c2)CC1` [Example 99, 2-(2-Isoquinolin-4-yl-pyridine-4-carbonyl)-3H-benzoimidazole-5-carboxylic acid (1-methyl-piperidin-4-yl)-amide], for which the half-maximal inhibitory concentration (IC50) was determined as 26 nM.

The same experiment, now with this note: CDK4/cyclin D1, 175 nM pRb152, 3 μM ATP; bound stated; read-out: IC50 values against CDK4.
`CN(C)C1CCN(c2ccc3nc(C(=O)c4ccnc(-c5cncc6ccccc56)c4)[nH]c3n2)CC1` [Example 135, [5-(4-Dimethylamino-piperidin-1-yl)-3H-imidazo[4,5-b]pyridin-2-yl]-(2-isoquinolin-4-yl-pyridin-4-yl)-methanone]: the IC50 is under 10000 nM. Take `O=C(c1ccnc(-c2cncc3ccccc23)c1)c1nc2cc(OCC(O)CO)ccc2[nH]1` (centres unmarked) [Example 98, [5-(2,3-Dihydroxy-propoxy)-1H-benzoimidazol-2-yl]-(2-isoquinolin-4-yl-pyridin-4-yl)-methanone]: the 50% inhibitory concentration (IC50) is under 10000 nM. In the case of `COc1ccc(F)c(F)c1-c1cncc(C(=O)c2nc3cc(CN(C)C)ccc3[nH]2)c1` [Example 159, [5-(2,3-Difluoro-6-methoxy-phenyl)-pyridin-3-yl]-(5-dimethylaminomethyl-1H-benzoimidazol-2-yl)-methanone], the IC50 is under 10000 nM. With `CN(C)C1CCN(c2ncc3nc(C(=O)c4ccnc(-c5cncc6ccccc56)c4)[nH]c3n2)CC1` [Example 133, [2-(4-Dimethylamino-piperidin-1-yl)-9H-purin-8-yl]-(2-isoquinolin-4-yl-pyridin-4-yl)-methanone], the concentration for half-maximal inhibition (IC50) was under 10000 nM. Regarding `CN(C)Cc1cccc2[nH]c(C(=O)c3ccnc(-c4cncc5ccccc45)c3)nc12` [Example 79A, (4-Dimethylaminomethyl-1H-benzoimidazol-2-yl)-(2-isoquinolin-4-yl-pyridin-4-yl)-methanone], the half-maximal inhibitory concentration (IC50) is under 10000 nM. Same read-out and setting: next, `Cc1nn(C)c(C)c1-c1cc(C(=O)c2nc3ccc(N4CCNC(C)(C)C4=O)nc3[nH]2)ccc1C#N` [Example 209, 4-[5-(3,3-Dimethyl-2-oxo-piperazin-1-yl)-3H-imidazo[4,5-b]pyridine-2-carbonyl]-2-(1,3,5-trimethyl-1H-pyrazol-4-yl)-benzonitrile]: under 10000 nM; `CCNCc1cncc(-c2cc(C(=O)c3nc4cc(OC)c(OC)cc4[nH]3)ccc2C#N)c1` [Example 101, 4-(5,6-Dimethoxy-1H-benzoimidazole-2-carbonyl)-2-(5-ethylaminomethyl-pyridin-3-yl)-benzonitrile]: under 10000 nM. Regarding `Cc1n[nH]c(C)c1-c1cc(C(=O)c2nc3ccc(N4CCC(N(C)C)CC4)cc3[nH]2)ccn1` [Example 129, [6-(4-Dimethylamino-piperidin-1-yl)-1H-benzoimidazol-2-yl]-[2-(3,5-dimethyl-1H-pyrazol-4-yl)-pyridin-4-yl]-methanone], the IC50 was under 10000 nM. In the case of `CNS(=O)(=O)c1ccccc1-c1cc(C(=O)c2nc3ccc(N4CCC(N(C)C)CC4)cc3[nH]2)ccn1` [Example 120, 2-{4-[6-(4-Dimethylamino-piperidin-1-yl)-1H-benzoimidazole-2-carbonyl]-pyridin-2-yl}-N-methyl-benzenesulfonamide], the half-inhibitory concentration (IC50) is under 10000 nM. `Cc1nn(C)c(C)c1-c1cc(C(=O)c2nc3ccc(OC4CCNC4)nc3[nH]2)ccc1C#N` (centres unmarked) [Example 160, 4-[5-(Pyrrolidin-3-yloxy)-3H-imidazo[4,5-b]pyridine-2-carbonyl]-2-(1,3,5-trimethyl-1H-pyrazol-4-yl)-benzonitrile]: the IC50 is under 10000 nM. Same read-out and setting: under `Cc1cc(F)ncc1-c1cc(C(=O)c2nc3ccc(N4CCC(N(C)C)CC4)cc3[nH]2)ccn1` [Example 119, [6-(4-Dimethylamino-piperidin-1-yl)-1H-benzoimidazol-2-yl]-(6′-fluoro-4′-methyl-[2,3′]bipyridinyl-4-yl)-methanone] stands under 10000 nM; under `COc1ccc(F)c(F)c1-c1cc(C(=O)c2ncc[nH]2)ccn1` [Example 66, [2-(2,3-Difluoro-6-methoxy-phenyl)-pyridin-4-yl]-(1H-imidazol-2-yl)-methanone], under 10000 nM; under `COc1ccc(F)c(F)c1-c1cc(C(=O)c2nc3c(CN(C)C)cccc3[nH]2)ccn1` [Example 79B, [2-(2,3-Difluoro-6-methoxy-phenyl)-pyridin-4-yl]-(4-dimethylaminomethyl-1H-benzoimidazol-2-yl)-methanone], under 10000 nM. As to `CN1CCC(NC(=O)c2ccc3nc(C(=O)c4ccnc(-c5cncc6ccccc56)c4)[nH]c3c2)CC1` [Example 99, 2-(2-Isoquinolin-4-yl-pyridine-4-carbonyl)-3H-benzoimidazole-5-carboxylic acid (1-methyl-piperidin-4-yl)-amide], the IC50 was under 10000 nM. With `COc1cccc(F)c1-c1cc(C(=O)c2nc3cc(CN4CCOCC4)ccc3[nH]2)ccn1` [Example 73, [2-(2-Fluoro-6-methoxy-phenyl)-pyridin-4-yl]-(5-morpholin-4-ylmethyl-1H-benzoimidazol-2-yl)-methanone], the concentration for half-maximal inhibition (IC50) is under 10000 nM.
